Data as given in patent publication US9115143B2, “Substituted indole derivatives as gamma secretase modulators” (Janssen Pharmaceuticals, Inc., priority 2011, dated 2015).

Legend:
Aβ42 = assay: Screening for γ-secretase-modulating activity: Aβ42 in supernatant of SKNBE2 cells carrying hAPP 695 wild type (Alphalisa); type: cell-based, human; settings: overnight incubation, Alphalisa on supernatant
Method: (§1) Pharmacology A) Screening of the Compounds of the Invention for γ-Secretase-Modulating Activity
(§2) Screening was carried out using SKNBE2 human neuroblastoma cells carrying the hAPP 695—wild type, grown in Dulbecco's Modified Eagle's Medium/Nutrient mixture F-12 (DMEM/NUT-mix F-12) (HAM) provided by Invitrogen (cat no. 10371-029) containing 5% Serum/Fe supplemented with 1% non-essential amino acids, 1-glutamine 2 mM, Hepes 15 mM, penicillin 50 U/mL (units/mL) en streptomycin 50 μg/mL. Cells were grown to near confluency.
(§3) The screening was performed using a modification of the assay as described in Citron et al (1997) Nature Medicine 3: 67. Briefly, cells were plated in a 384-well plate at 10^4 cells/well in Ultraculture (Lonza, BE12-725F) supplemented with 1% glutamine (Invitrogen, 25030-024), 1% non-essential amino acid (NEAA), penicillin 50 U/mL en streptomycin 50 μg/mL in the presence of test compound at different test concentrations. The cell/compound mixture was incubated overnight at 37° C., 5% CO2. The next day the media were assayed by two sandwich immuno-assays, for Aβ42 and Aβtotal.
(§4) Aβtotal and Aβ42 concentrations were quantified in the cell supernatant using the Aphalisa technology (Perkin Elmer). Alphalisa is a sandwich assay using biotinylated antibody attached to streptavidin coated donorbeads and antibody conjugated to acceptor beads. In the presence of antigen, the beads come into close proximity. The excitation of the donor beads provokes the release of singlet oxygen molecules that trigger a cascade of energy transfer in the acceptor beads, resulting in light emission. To quantify the amount of Aβ42 in the cell supernatant, monoclonal antibody specific to the C-terminus of Aβ42 (JRF/cAβ42/26) was coupled to the receptor beads and biotinylated antibody specific to the N-terminus of Aβ (JRF/AβN/25) was used to react with the donor beads. To quantify the amount of Aβ total in the cell supernatant, monoclonal antibody specific to the N-terminus of Aβ (JRF/AβN/25) was coupled to the receptor beads and biotinylated antibody specific to the mid region of Aβ (biotinylated 4G8) was used to react with the donor beads.
(§5) To obtain the values reported in Table 3, the data are calculated as percentage of the maximum amount of amyloid Beta 42 measured in the absence of the test compound. The sigmoidal dose response curves were analyzed using nonlinear regression analysis with percentage of the control plotted against the log concentration of the compound. A 4-parameter equation was used to determine the IC50.

Aβtotal = assay: Screening for γ-secretase-modulating activity: Aβtotal in supernatant of SKNBE2 cells carrying hAPP 695 wild type (Alphalisa); type: cell-based, human; settings: overnight incubation, Alphalisa on supernatant
Method: as §1, §2, §3, §4, §5

[1] = SKNBE2 human neuroblastoma cells carrying hAPP 695 wild type
[2] = Homo sapiens, SKNBE2, SKNBE2 human neuroblastoma cells carrying hAPP 695 wild type

IC50 (Aβ42; [1]) [µM] | IC50 (Aβtotal; [2]) [µM] | IC50 (Aβtotal; [1]) [µM] | IC50 (Aβ42; [2]) [µM] | SMILES
0.098 |  | > 10 |  | COc1c(C#N)ccc2[nH]c(-c3nc4n(n3)CCOC4c3cc(C(F)(F)F)ccc3F)cc12 (single isomer, unassigned) [Compound 161, 2-[8-[2-fluoro-5-(trifluoromethyl)phenyl]-5,6-dihydro-8H-[1,2,4]triazolo[5,1-c][1,4]oxazin-2-yl]-4-methoxy-1H-indole-5-carbonitrile]
0.11 | > 10 |  |  | Cc1cc(-c2ccc3[nH]c(-c4nc5n(n4)CCCC5c4ccc(F)cc4C)nc3c2)ccn1 (single isomer, unassigned) [Compound 174, 8-(4-fluoro-2-methylphenyl)-5,6,7,8-tetrahydro-2-[5-(2-methyl-4-pyridinyl)-1H-benzimidazol-2-yl]-[1,2,4]triazolo[1,5-a]pyridine]
0.028 |  | > 10 |  | Cc1cc(-c2ccc3[nH]c(-c4nc5n(n4)CCCC5c4ccc(F)cc4C)nc3c2)ccn1 (single isomer, unassigned) [Compound 175, 8-(4-fluoro-2-methylphenyl)-5,6,7,8-tetrahydro-2-[5-(2-methyl-4-pyridinyl)-1H-benzimidazol-2-yl]-[1,2,4]triazolo[1,5-a]pyridine]
 | > 10 |  | 0.437 | Cc1ccc(C(F)(F)F)cc1C1CCCn2nc(-c3cc4cc(C#N)cnc4[nH]3)nc21 (stereo not drawn) [Compound 3, 2-[5,6,7,8-tetrahydro-8-[2-methyl-5-(trifluoromethyl)phenyl][1,2,4]triazolo[1,5-a]pyridin-2-yl]-1H-pyrrolo[2,3-b]pyridine-5-carbonitrile]
2.95 |  | > 10 |  | Cc1ccccc1C1CCCn2nc(-c3cc4cc(C#N)ccc4[nH]3)nc21 (stereo not drawn) [Compound 14, 2-[5,6,7,8-tetrahydro-8-(2-methylphenyl)[1,2,4]triazolo[1,5-a]pyridin-2-yl]-1H-indole-5-carbonitrile]
 | > 10 |  | 0.089 | Cc1ccccc1C1CCCn2cc(-c3cc4cc(C#N)ccc4[nH]3)nc21 (stereo not drawn) [Compound 15, 2-[5,6,7,8-tetrahydro-8-(2-methylphenyl)imidazo[1,2-a]pyridin-2-yl]-1H-indole-5-carbonitrile]
 | > 10 |  | 0.087 | N#Cc1ccc2[nH]c(-c3cn4c(n3)C(c3ccccc3C(F)(F)F)CCC4)cc2c1 (stereo not drawn) [Compound 17, 2-[5,6,7,8-tetrahydro-8-[2-(trifluoromethyl)phenyl]imidazo[1,2-a]pyridin-2-yl]-1H-indole-5-carbonitrile]
 | > 10 |  | 0.257 | Cc1ccccc1C1CCCn2nc(-c3cc4cc(C#N)ncc4[nH]3)nc21 (stereo not drawn) [Compound 24, 2-[5,6,7,8-tetrahydro-8-(2-methylphenyl)[1,2,4]triazolo[1,5-a]pyridin-2-yl]-1H-pyrrolo[2,3-c]pyridine-5-carbonitrile]
 | > 10 |  | 0.107 | COc1cc2[nH]c(-c3nc4n(n3)CCCC4c3ccccc3C(F)(F)F)cc2cc1C#N (stereo not drawn) [Compound 28, 6-methoxy-2-[5,6,7,8-tetrahydro-8-[2-(trifluoromethyl)phenyl][1,2,4]triazolo[1,5-a]pyridin-2-yl]-1H-indole-5-carbonitrile]
0.035 | > 10 |  |  | COc1c(C#N)ccc2[nH]c(-c3cn4c(n3)C(c3cccc(F)c3C)OCC4)cc12 (stereo not drawn) [Compound 40, 2-[8-(3-fluoro-2-methylphenyl)-5,6-dihydro-8H-imidazo[2,1-c][1,4]oxazin-2-yl]-4-methoxy-1H-indole-5-carbonitrile]
0.468 |  | > 10 |  | COc1c(C#N)ccc2[nH]c(-c3cn4c(n3)C(c3cccc(F)c3C)OCC4)cc12 (stereo not drawn) [Compound 42, 2-[8-(3-fluoro-2-methylphenyl)-5,6-dihydro-8H-imidazo[2,1-c][1,4]oxazin-2-yl]-4-methoxy-1H-indole-5-carbonitrile]
0.058 | > 10 |  |  | COc1c(C#N)ccc2[nH]c(-c3cn4c(n3)C(c3ccccc3Cl)OCC4)cc12 (stereo not drawn) [Compound 49, 2-[8-(2-chlorophenyl)-5,6-dihydro-8H-imidazo[2,1-c][1,4]oxazin-2-yl]-4-methoxy-1H-indole-5-carbonitrile]
2.34 |  | > 10 |  | COc1c(C#N)ccc2[nH]c(-c3nc4n(n3)CCCOC4c3ccc(F)cc3C)cc12 (stereo not drawn) [Compound 54, 2-[9-(4-fluoro-2-methylphenyl)-6,7-dihydro-5H,9H-[1,2,4]triazolo[5,1-c][1,4]oxazepin-2-yl]-4-methoxy-1H-indole-5-carbonitrile]

The next lines start with the compound.

SMILES | IC50 (Aβ42; [1]) [µM] | IC50 (Aβtotal; [2]) [µM] | IC50 (Aβtotal; [1]) [µM] | IC50 (Aβ42; [2]) [µM]
COc1c(C#N)ccc2[nH]c(-c3nc4n(n3)CCOC4c3cc(C(F)(F)F)ccc3F)cc12 (single isomer, unassigned) [Compound 160, 2-[8-[2-fluoro-5-(trifluoromethyl)phenyl]-5,6-dihydro-8H-[1,2,4]triazolo[5,1-c][1,4]oxazin-2-yl]-4-methoxy-1H-indole-5-carbonitrile] | 5.13 | > 10 |  | 
Cc1cc(F)ccc1C1OCCn2nc(-c3cc4c(OC(C)C)c(C#N)ccc4[nH]3)nc21 (single isomer, unassigned) [Compound 172, 2-[8-(4-fluoro-2-methylphenyl)-5,6-dihydro-8H-[1,2,4]triazolo[5,1-c][1,4]oxazin-2-yl]-4-(1-methylethoxy)-1H-indole-5-carbonitrile] | > 10 |  | > 10 | 
Cc1cc(F)ccc1C1OCCn2nc(-c3cc4c(OC(C)C)c(C#N)ccc4[nH]3)nc21 (single isomer, unassigned) [Compound 173, 2-[8-(4-fluoro-2-methylphenyl)-5,6-dihydro-8H-[1,2,4]triazolo[5,1-c][1,4]oxazin-2-yl]-4-(1-methylethoxy)-1H-indole-5-carbonitrile] | 0.251 | > 10 |  | 
Cc1cc(F)ccc1C1CCCn2nc(-c3[nH]c4ccc(C#N)cc4c3F)nc21 (single isomer, unassigned) [Compound 181, 3-fluoro-2-[8-(4-fluoro-2-methylphenyl)-5,6,7,8-tetrahydro[1,2,4]triazolo[1,5-a]pyridin-2-yl]-1H-indole-5-carbonitrile] | 5.89 | > 10 |  | 
Cc1cc(-c2ccc3[nH]c(-c4nc5n(n4)CCCC5c4ccccc4C(F)(F)F)cc3c2)ccn1 (stereo not drawn) [Compound 2, 5,6,7,8-tetrahydro-2-[5-(2-methyl-4-pyridinyl)-1H-indol-2-yl]-8-[2-(trifluoromethyl)phenyl]-[1,2,4]triazolo[1,5-a]pyridine] |  | 7.41 |  | 0.022
Cc1cc(F)ccc1C1CCCn2nc(-c3cc4cc(C#N)ccc4[nH]3)nc21 (stereo not drawn) [Compound 11, 2-[8-(4-fluoro-2-methylphenyl)-5,6,7,8-tetrahydro[1,2,4]triazolo[1,5-a]pyridin-2-yl]-1H-indole-5-carbonitrile] | 3.47 |  | > 10 | 
Cc1cc(F)ccc1C1CCCn2nc(-c3cc4cc(C#N)cnc4[nH]3)nc21 (stereo not drawn) [Compound 23, 2-[8-(4-fluoro-2-methylphenyl)-5,6,7,8-tetrahydro[1,2,4]triazolo[1,5-a]pyridin-2-yl]-1H-pyrrolo[2,3-b]pyridine-5-carbonitrile] |  | > 10 |  | 0.589
Cc1ccc(C(F)(F)F)cc1C1OCCn2nc(-c3cc4cc(C#N)ccc4[nH]3)nc21 (stereo not drawn) [Compound 34, 2-[5,6-dihydro-8-[2-methyl-5-(trifluoromethyl)phenyl]-8H-[1,2,4]triazolo[5,1-c][1,4]oxazin-2-yl]-1H-indole-5-carbonitrile] |  | > 10 |  | 0.692
N#Cc1ccc2[nH]c(-c3nc4n(n3)CCOC4c3ccccc3C(F)(F)F)cc2c1 (stereo not drawn) [Compound 35, 2-[5,6-dihydro-8-[2-(trifluoromethyl)phenyl]-8H-[1,2,4]triazolo[5,1-c][1,4]oxazin-2-yl]-1H-indole-5-carbonitrile] |  | > 10 |  | 0.363
COc1c(C#N)ccc2[nH]c(-c3nc4n(n3)CCCOC4c3ccc(F)cc3C)cc12 (stereo not drawn) [Compound 52, 2-[9-(4-fluoro-2-methylphenyl)-6,7-dihydro-5H,9H-[1,2,4]triazolo[5,1-c][1,4]oxazepin-2-yl]-4-methoxy-1H-indole-5-carbonitrile] | 0.044 | > 10 |  | 
COc1c(C#N)ccc2[nH]c(-c3nc4n(n3)CCN(C)C4c3ccc(F)cc3C)cc12 (stereo not drawn) [Compound 58, 2-[8-(4-fluoro-2-methylphenyl)-5,6,7,8-tetrahydro-7-methyl[1,2,4]triazolo[1,5-a]pyrazin-2-yl]-4-methoxy-1H-indole-5-carbonitrile] |  | > 10 |  | 0.049
